In experiment [1] the target is T1, AsPC-1 HiBiT-KRASG12D (Homo sapiens, UniProt P01116, G12D).
T1 construct: insert the HiBiT tag onto the N-terminus of one or more of the endogenous KRAS alleles; endogenous in cells; host or cells: AsPC-1 (ATCC CRL-1682), CRISPR-Cas9 knock-in clone, one tagged allele
Briefly: HiBiT degradation assay (G12D), AsPC-1 HiBiT-KRASG12D cells. Type of experiment: cell-based. Particulars: 24 hours treatment; for Dmax: ASPC1, AsPC-1 HiBiT-KRASG12D cells, maximum degradation observed; for DC50: AsPC-1 HiBiT-KRASG12D cells, HiBiT luminescence. An outline of the steps: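 AsPC-1 cells (homozygous G12D) carrying a CRISPR knock-in N-terminal HiBiT tag on endogenous KRAS were treated with compounds for 24 hours at 37° C, 5% CO2, in triplicate. Alamar blue viability was read first, then cells were washed and lysed with Nano-Glo HiBiT reagent for 45 minutes before luminescence reading.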
(HiBiT is a short tag that completes a luciferase, so light tracks the accessible tagged protein.)

The target in experiment [2] is T2, SW1573 HiBiT-KRASG12C (Homo sapiens, UniProt P01116, G12C).
T2 construct: expressed in transfected cells
Briefly: HiBiT degradation assay (G12C), SW1573 HiBiT-KRASG12C cells.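 As to SW1573 HiBiT-KRASG12C DC50 (nM): Letter grades: C is 1000 to 3000 nM and D is above 3000 nM.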 The format is cell-based. Particulars: 24 hours treatment; for Dmax: maximum degradation observed. Here is the method: Reagents. SW1573 (CRL-2170), AsPC-1 (CRL-1682), and SW620 (CCL-227) cells were purchased from ATCC. SW1573 cells are homozygous for the G12C mutation in KRAS, AsPC-1 cells are homozygous for the G12D mutation, and SW620 cells are homozygous for the G12V mutation. SW1573 cells were cultured in DMEM+F12+Glutamax (+Sodium Bicarbonate, +sodium pyruvate, ThermoFisher scientific, #10565) supplemented with 10% FBS (ThermoFisher scientific, #2060357) and 1% Antibiotic-Antimycotic (ThermoFisher scientific, #15240096). AsPC-1 cells were cultured in GIBCO RPMI-1640 (ThermoFisher scientific, catalog #61870-036 with Glutamax, No HEPES, No Na Pyruvate) supplemented with 10% FBS (ThermoFisher scientific, catalog #2060357) and 1× Penicillin-Streptomycin (ThermoFisher scientific, catalog #15140122, 10000 U/ml, 100×). SW620 cells were cultured in DMEM Glutamax (ThermoFisher scientific, catalog #10566016) supplemented with 10% FBS (ThermoFisher scientific, catalog #2060357) and 1× Penicillin-Streptomycin (ThermoFisher scientific, catalog #15140122, 10000 U/ml, 100×). For degradation assays, 384 well plates were used. Alamar blue was purchased from ThermoFisher scientific (A50101) and used according to manufacturer instructions. The Nano-Glo® HiBiT Lytic Detection System and Nano-Glo® HiBiT Blotting System were purchased from Promega (#N3050 and #N2410) and used according to manufacturer instructions.
HiBiT-tagged cell line generation. To create the SW1573 HiBiT-KRASG12C cell line, the nucleotide sequence encoding the 11 amino acid HiBiT tag from Promegal was appended to the N-terminus of the KRASG12C coding sequence. This synthesized DNA was cloned into a modified pcDNA3.1 vector under the control of the thymidine kinase (TK) promoter. This HiBiT-KRASG12C expressing plasmid was transfected into parental SW1573 cells and colonies were selected using 400 μg/mL zeocin. The resulting clonal lines were screened for expression of HiBiT-KRASG12C protein using Nano-Glo® HiBiT Blotting System. A luminescent band of the correct size for HiBiT-KRASG12C was detected in several clones. Clone E6 was selected for further studies.
HiBiT degradation assays (G12C and G12D). Either SW1573 HiBiT-KRasG12C or AsPC-1 HiBiT-KRasG12D cells were plated at 9000 or 15,000 cells/well in a 384 well plate (Corning #3770). Compounds of the present disclosure and positive controls were diluted in the appropriate cell media and applied to the plated cells resulting in a final concentration titration of 10 μM to 508 pM in 0.5% DMSO. Gambogic acid was used as a positive control for cytotoxicity and titrated from 10 μM to 78 nM. All assays were performed in triplicate. Cells were treated with compounds for 24 hours at 37° C. in an incubator containing 5% CO2. Following treatment, alamar blue was used to determine if any compounds led to a loss in cell viability after 24 hours. The 10× alamar blue reagent was added to a final concentration of 1× as recommended by the manufacturer and cells were returned to the incubator for 4 hours. Plates were then allowed to equilibrate to room temperature and fluorescence was measured using a Perkin-Elmer EnVision. After completion of the fluorescence read, the liquid from each well was removed and the cells were washed with PBS. The Nano-Glo® HiBiT detection reagent was prepared according to the manufacturer's instructions and added to each well after the PBS wash was removed. Following incubation at room temperature for 45 minutes, the luminescence was read using the ultra-sensitive luminescence aperture on the Envision instrument.
Data analysis. Fluorescence values from the alamar blue treatment were normalized to the DMSO-only control for each compound titration. […]

The term Dmax denotes the greatest extent of degradation seen. By DC50 is commonly meant the concentration at which degradation of the target reaches its halfway point.

T1 sequence (P01116 1-188 isoform P01116-2 G12D): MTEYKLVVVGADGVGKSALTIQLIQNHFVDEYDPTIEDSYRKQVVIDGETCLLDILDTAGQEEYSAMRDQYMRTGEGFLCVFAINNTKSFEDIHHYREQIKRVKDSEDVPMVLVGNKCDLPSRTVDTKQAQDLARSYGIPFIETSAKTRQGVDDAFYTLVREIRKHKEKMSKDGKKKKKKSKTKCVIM
T2 sequence (P01116 1-188 isoform P01116-2 G12C): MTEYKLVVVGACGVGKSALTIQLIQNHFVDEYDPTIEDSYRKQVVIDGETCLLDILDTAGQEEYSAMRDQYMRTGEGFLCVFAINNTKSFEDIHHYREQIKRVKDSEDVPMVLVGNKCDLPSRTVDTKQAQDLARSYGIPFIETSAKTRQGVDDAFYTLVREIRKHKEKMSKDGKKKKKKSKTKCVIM

In experiment [1], `CCc1cccc2cc(O)cc(-c3ncc4c(N5CC6CCC(C5)N6)nc(OCCN5CCC6(CC5)CN(c5cc([C@@H](C(=O)N7C[C@H](O)C[C@H]7C(=O)N[C@@H](C)c7ccc(-c8scnc8C)cc7)C(C)C)on5)C6)nc4c3F)c12` [Compound 15, (2S,4R)-1-[(2S)-2-[3-[7-[2-[4-(3,8-diazabicyclo[3.2.1]octan-3-yl)-7-(8-ethyl-3-hydroxy-1-naphthyl)-8-fluoro-pyrido[4,3-d]pyrimidin-2-yl]oxyethyl]-2,7-diazaspiro[3.5]nonan-2-yl]isoxazol-5-yl]-3-methyl-butanoyl]-4-hydroxy-N-[(1S)-1-[4-(4-methylthiazol-5-yl)phenyl]ethyl]pyrrolidine-2-carboxamide] came in with a Dmax of 20 to 60% and a DC50 of 1 to 3 µM. The half-maximal degradation concentration (DC50) in experiment [2] (HiBiT luminescence) was above 3 µM.
Take `CCc1cccc2cc(O)cc(-c3ncc4c(N5CC6CCC(C5)N6)nc(OCCN5CCC6(CC5)CN(c5cc([C@H](C(=O)N7C[C@H](O)C[C@H]7C(=O)N[C@@H](C)c7ccc(-c8scnc8C)cc7)C(C)C)on5)C6)nc4c3F)c12` [Compound 16, (2S,4R)-1-[(2R)-2-[3-[7-[2-[4-(3,8-diazabicyclo[3.2.1]octan-3-yl)-7-(8-ethyl-3-hydroxy-1-naphthyl)-8-fluoro-pyrido[4,3-d]pyrimidin-2-yl]oxyethyl]-2,7-diazaspiro[3.5]nonan-2-yl]isoxazol-5-yl]-3-methyl-butanoyl]-4-hydroxy-N-[(1S)-1-[4-(4-methylthiazol-5-yl)phenyl]ethyl]pyrrolidine-2-carboxamide]: the maximal degradation (Dmax) in experiment [1] was in the range of 80 to 100%. Besides, the DC50 is below 0.6 µM in experiment [1] and above 3 µM in experiment [2] (HiBiT luminescence).
For `C#Cc1cccc2cc(O)cc(-c3ncc4c(N5CC6CCC(C6)C5)nc(OCCN5CCC(COCC(=O)N[C@H](C(=O)N6C[C@H](O)C[C@H]6C(=O)N[C@@H](C)c6ccc(-c7scnc7C)cc6)C(C)(C)C)CC5)nc4c3F)c12` [Compound 17, (2S,4R)-1-[(2S)-2-[[2-[[1-[2-[4-(3-azabicyclo[3.2.1]octan-3-yl)-7-(8-ethynyl-3-hydroxy-1-naphthyl)-8-fluoro-pyrido[4,3-d]pyrimidin-2-yl]oxyethyl]-4-piperidyl]methoxy]acetyl]amino]-3,3-dimethyl-butanoyl]-4-hydroxy-N-[(1S)-1-[4-(4-methylthiazol-5-yl)phenyl]ethyl]pyrrolidine-2-carboxamide], the results for the DC50 in experiment [1] and in experiment [2] (HiBiT luminescence) were above 3 µM and 1 to 3 µM, respectively. The same molecule gave a Dmax in experiment [2] of 20 to 60%.
`C#Cc1cccc2cc(O)cc(-c3ncc4c(N5CC6CCC(C6)C5)nc(OCCN5CCC(COc6cc([C@H](C(=O)N7C[C@H](O)C[C@H]7C(=O)N[C@@H](C)c7ccc(-c8scnc8C)cc7)C(C)C)on6)CC5)nc4c3F)c12` [Compound 18, (2S,4R)-1-[(2R)-2-[3-[[1-[2-[4-(3-azabicyclo[3.2.1]octan-3-yl)-7-(8-ethynyl-3-hydroxy-1-naphthyl)-8-fluoro-pyrido[4,3-d]pyrimidin-2-yl]oxyethyl]-4-piperidyl]methoxy]isoxazol-5-yl]-3-methyl-butanoyl]-4-hydroxy-N-[(1S)-1-[4-(4-methylthiazol-5-yl)phenyl]ethyl]pyrrolidine-2-carboxamide]: the DC50 in experiment [1] and in experiment [2] (HiBiT luminescence) was above 3 µM each time.
With `CCc1cccc2cc(O)cc(-c3ncc4c(N5CC6CCC(C6)C5)nc(OCCN5CCC(COCC(=O)N[C@H](C(=O)N6C[C@H](O)C[C@H]6C(=O)N[C@@H](C)c6ccc(-c7scnc7C)cc6)C(C)(C)C)CC5)nc4c3F)c12` [Compound 19, (2S,4R)-1-[(2S)-2-[[2-[[1-[2-[4-(3-azabicyclo[3.2.1]octan-3-yl)-7-(8-ethyl-3-hydroxy-1-naphthyl)-8-fluoro-pyrido[4,3-d]pyrimidin-2-yl]oxyethyl]-4-piperidyl]methoxy]acetyl]amino]-3,3-dimethyl-butanoyl]-4-hydroxy-N-[(1S)-1-[4-(4-methylthiazol-5-yl)phenyl]ethyl]pyrrolidine-2-carboxamide], the results for the DC50 in experiment [1] and in experiment [2] (HiBiT luminescence) were above 3 µM and 1 to 3 µM, respectively. In experiment [2], this molecule showed a Dmax of 20 to 60%.
In turn, `CCc1cccc2cc(O)cc(-c3ncc4c(N5CC6CCC(C5)N6)nc(OCCN5CCC(COc6cc([C@H](C(=O)N7C[C@H](O)C[C@H]7C(=O)N[C@@H](C)c7ccc(-c8scnc8C)cc7)C(C)C)on6)CC5)nc4c3F)c12` [Compound 20, (2S,4R)-1-[(2R)-2-[3-[[1-[2-[4-(3,8-diazabicyclo[3.2.1]octan-3-yl)-7-(8-ethyl-3-hydroxy-1-naphthyl)-8-fluoro-pyrido[4,3-d]pyrimidin-2-yl]oxyethyl]-4-piperidyl]methoxy]isoxazol-5-yl]-3-methyl-butanoyl]-4-hydroxy-N-[(1S)-1-[4-(4-methylthiazol-5-yl)phenyl]ethyl]pyrrolidine-2-carboxamide] had a Dmax in experiment [1] of 80 to 100%. The results for the DC50 in experiment [1] and in experiment [2] (HiBiT luminescence) were below 0.6 µM and above 3 µM, respectively.
Turning to `CCc1cccc2cc(O)cc(-c3ncc4c(N5CC6CCC(C5)N6)nc(OCCN5CCC(COCC(=O)N[C@H](C(=O)N6C[C@H](O)C[C@H]6C(=O)N[C@@H](C)c6ccc(-c7scnc7C)cc6)C(C)(C)C)CC5)nc4c3F)c12` [Compound 21, (2S,4R)-1-[(2S)-2-[[2-[[1-[2-[4-(3,8-diazabicyclo[3.2.1]octan-3-yl)-7-(8-ethyl-3-hydroxy-1-naphthyl)-8-fluoro-pyrido[4,3-d]pyrimidin-2-yl]oxyethyl]-4-piperidyl]methoxy]acetyl]amino]-3,3-dimethyl-butanoyl]-4-hydroxy-N-[(1S)-1-[4-(4-methylthiazol-5-yl)phenyl]ethyl]pyrrolidine-2-carboxamide], in experiment [1], the Dmax lay in the range of 80 to 100% and the DC50 is below 0.6 µM. This molecule came in with a DC50 in experiment [2] (HiBiT luminescence) above 3 µM.
In experiment [1], `Cc1ncsc1-c1ccc([C@H](C)NC(=O)[C@@H]2C[C@@H](O)CN2C(=O)[C@@H](c2cc(OCC3CCN(CCOc4nc(N5CC6CCC(C5)N6)c5cnc(-c6cc(O)cc7ccccc67)c(F)c5n4)CC3)no2)C(C)C)cc1` [Compound 22, (2S,4R)-1-[(2R)-2-[3-[[1-[2-[4-(3,8-diazabicyclo[3.2.1]octan-3-yl)-8-fluoro-7-(3-hydroxy-1-naphthyl)pyrido[4,3-d]pyrimidin-2-yl]oxyethyl]-4-piperidyl]methoxy]isoxazol-5-yl]-3-methyl-butanoyl]-4-hydroxy-N-[(1S)-1-[4-(4-methylthiazol-5-yl)phenyl]ethyl]pyrrolidine-2-carboxamide] had a Dmax of 20 to 60% and a DC50 of 0.6 to 1 µM. Further, the “SW1573 HiBiT-KRASG12C DC50 (nM)” value in experiment [2] (HiBiT luminescence) was “C/D*”.

The values above are taken from patent US20250206732A1, “COMPOUNDS AND METHODS FOR THE TARGETED DEGRADATION OF KRAS” (Arvinas Operations, Inc., priority 2022, published 2025).
